Results taken from patent US5593984A, “Cephalosporin derivatives” (Yuhan Corporation, priority 1992, dated 1997).
Values after ≈ are worked out from the molar mass of the structure shown.

Experiments:
Format in all cases: cell-based
E. coli DY-1 = test: MIC by agar dilution, E. coli DY-1; details: Escherichia coli, DY1, 17 h; E. coli DY-1; agar dilution, Mueller-Hinton agar; read-out: Minimal Inhibitory Concentration (MIC)
Experimental: (§1) These MIC values were determined by agar dilution method: that is, two-fold dilutions of each of the test compounds were made and dispersed in a Mueller-Hinton agar medium; standard test strain which had the 10^6 CFU (Colony Forming Unit) per ml was inoculated on the medium with microplanter (Toyo, Japan), and incubated at 35°-37° C. for 17±1 hours. The structures of Ceftazidime (CAZ) and Cefotaxime (CTX) which are used as control compounds are as follows: [drawing 12]

Staph. aureus C-57 = test: MIC by agar dilution, Staph. aureus C-57; details: Staphylococcus aureus, C57, 17 h, Mueller-Hinton agar, read-out: Minimal Inhibitory Concentration (MIC)
Experimental: as §1

Prov. stuartii IFO 12930 = test: MIC by agar dilution, Prov. stuartii IFO 12930; details: Providencia stuartii, IFO12930, 17 h, Mueller-Hinton agar, read-out: Minimal Inhibitory Concentration (MIC)
Experimental: as §1

Staph. aureus C-5113 = test: MIC by agar dilution, Staph. aureus C-5113; details: Staphylococcus aureus, C5113, 17 h, Mueller-Hinton agar, read-out: Minimal Inhibitory Concentration (MIC)
Experimental: as §1

[1] = system: Ser. marcescens IFO 12648; test: MIC by agar dilution, Ser. marcescens IFO 12648; details: Serratia marcescens, IFO12648, 17 h; Ser. marcescens IFO 12648; agar dilution, Mueller-Hinton agar; read-out: Minimal Inhibitory Concentration (MIC)
Experimental: as §1

E. coli No. 29 = test: MIC by agar dilution, E. coli No. 29; details: Escherichia coli, 17 h; E. coli No. 29; agar dilution, Mueller-Hinton agar; read-out: Minimal Inhibitory Concentration (MIC)
Experimental: as §1

Staph. aureus ATCC 6538P = test: MIC by agar dilution, Staph. aureus ATCC 6538P; details: Staphylococcus aureus, ATCC6538P, 17 h; Staph. aureus ATCC 6538P; agar dilution, Mueller-Hinton agar; read-out: Minimal Inhibitory Concentration (MIC)
Experimental: as §1

M. morganii DY-1 = test: MIC by agar dilution, M. morganii DY-1; details: Morganella morganii, DY1, 17 h; M. morganii DY-1; agar dilution, Mueller-Hinton agar; read-out: Minimal Inhibitory Concentration (MIC)
Experimental: as §1

[2] = system: Ps. aeruginosa NCTC 10490; test: MIC by agar dilution, Ps. aeruginosa NCTC 10490; details: Pseudomonas aeruginosa, NCTC10490, 17 h, Mueller-Hinton agar, read-out: Minimal Inhibitory Concentration (MIC)
Experimental: as §1

P. vulgaris NCTC 8313 = test: MIC by agar dilution, P. vulgaris NCTC 8313; details: Proteus vulgaris, NCTC8313, 17 h; P. vulgaris NCTC 8313; agar dilution, Mueller-Hinton agar; read-out: Minimal Inhibitory Concentration (MIC)
Experimental: as §1

K. pneumoniae NCTC 9632 = test: MIC by agar dilution, K. pneumoniae NCTC 9632; details: Klebsiella pneumoniae, NCTC9632, 17 h; K. pneumoniae NCTC 9632; agar dilution, Mueller-Hinton agar; read-out: Minimal Inhibitory Concentration (MIC)
Experimental: as §1

Staph. aureus C-5216 = test: MIC by agar dilution, Staph. aureus C-5216; details: Staphylococcus aureus, C5216, 17 h, Mueller-Hinton agar, read-out: Minimal Inhibitory Concentration (MIC)
Experimental: as §1

E. coli NIHJ JC-2 = test: MIC by agar dilution, E. coli NIHJ JC-2; details: Escherichia coli, NIHJJC2, 17 h; E. coli NIHJ JC-2; agar dilution, Mueller-Hinton agar; read-out: Minimal Inhibitory Concentration (MIC)
Experimental: as §1

[3] = system: Ps. aeruginosa ATCC 10145; test: MIC by agar dilution, Ps. aeruginosa ATCC 10145; details: Pseudomonas aeruginosa, ATCC10145, 17 h, Mueller-Hinton agar, read-out: Minimal Inhibitory Concentration (MIC)
Experimental: as §1

Ent. cloacae IFO 13535 = test: MIC by agar dilution, Ent. cloacae IFO 13535; details: Enterobacter cloacae, IFO13535, 17 h; Ent. cloacae IFO 13535; agar dilution, Mueller-Hinton agar; read-out: Minimal Inhibitory Concentration (MIC)
Experimental: as §1

Staph. aureus Smith = test: MIC by agar dilution, Staph. aureus Smith; details: Staphylococcus aureus, 17 h, Mueller-Hinton agar, read-out: Minimal Inhibitory Concentration (MIC)
Experimental: as §1

Ent. aerogenes IFO 12979 = test: MIC by agar dilution, Ent. aerogenes IFO 12979; details: Klebsiella aerogenes, IFO12979, 17 h, Mueller-Hinton agar, read-out: Minimal Inhibitory Concentration (MIC)
Experimental: as §1

[4] = system: S. epidermidis ATCC 12228; test: MIC by agar dilution, S. epidermidis ATCC 12228; details: Staphylococcus epidermidis, ATCC12228, 17 h; S. epidermidis ATCC 12228; agar dilution, Mueller-Hinton agar; read-out: Minimal Inhibitory Concentration (MIC)
Experimental: as §1

Ps. aeruginosa DY-2 = test: MIC by agar dilution, Ps. aeruginosa DY-2; details: Pseudomonas aeruginosa, DY2, 17 h; Ps. aeruginosa DY-2; agar dilution, Mueller-Hinton agar; read-out: Minimal Inhibitory Concentration (MIC)
Experimental: as §1

B. subtilis ATCC 6633 = test: MIC by agar dilution, B. subtilis ATCC 6633; details: Bacillus subtilis, ATCC6633, 17 h; B. subtilis ATCC 6633; agar dilution, Mueller-Hinton agar; read-out: Minimal Inhibitory Concentration (MIC)
Experimental: as §1

| SMILES | MIC (E. coli DY-1) | MIC (Staph. aureus C-57) | MIC (Prov. stuartii IFO 12930) | MIC (Staph. aureus C-5113) | MIC [1] | MIC (E. coli No. 29) | MIC (Staph. aureus ATCC 6538P) | MIC (M. morganii DY-1) | MIC [2] | MIC (P. vulgaris NCTC 8313) | MIC (K. pneumoniae NCTC 9632) | MIC (Staph. aureus C-5216) | MIC (E. coli NIHJ JC-2) | MIC [3] | MIC (Ent. cloacae IFO 13535) | MIC (Staph. aureus Smith) | MIC (Ent. aerogenes IFO 12979) | MIC [4] | MIC (Ps. aeruginosa DY-2) | MIC (B. subtilis ATCC 6633) |
| --- | --- | --- | --- | --- | --- | --- | --- | --- | --- | --- | --- | --- | --- | --- | --- | --- | --- | --- | --- | --- |
| CON=C(C(=O)NC1C(=O)N2C(C(=O)[O-])=C(C[n+]3ccn4c(C=O)ccc4c3)CSC12)c1csc(N)n1 (stereo not drawn) [Ex. 25, 7-β-[(Z)-2-(2-aminothiazol-4-yl)-2-methoxyiminoacetamido]-3-(6-formylpyrrolo[1,2-a]pyrazinium-2-yl)methyl-3-cephem-4-carboxylate] | 50 ng/mL (≈ 0.0923 µM) | 25 µg/mL (≈ 46.2 µM) | 0.012 µg/mL (≈ 0.0222 µM) | 3.13 µg/mL (≈ 5.78 µM) | 0.05 µg/mL (≈ 0.0923 µM) | 50 ng/mL (≈ 0.0923 µM) | 0.78 µg/mL (≈ 1.44 µM) | 0.05 µg/mL (≈ 0.0923 µM) | 0.39 µg/mL (≈ 0.72 µM) | 0.05 µg/mL (≈ 0.0923 µM) | 0.05 µg/mL (≈ 0.0923 µM) | 1.56 µg/mL (≈ 2.88 µM) | 0.025 µg/mL (≈ 0.0462 µM) | 3.13 µg/mL (≈ 5.78 µM) | 0.78 µg/mL (≈ 1.44 µM) | 3.13 µg/mL (≈ 5.78 µM) | 0.025 µg/mL (≈ 0.0462 µM) | 0.1 µg/mL (≈ 0.185 µM) | 12.5 µg/mL (≈ 23.1 µM) | 0.39 µg/mL (≈ 0.72 µM) |
| Nc1nc(/C(=N/OCF)C(=O)N[C@@H]2C(=O)N3C(C(=O)[O-])=C(C[n+]4ccn5ccc(CO)c5c4)CS[C@H]23)cs1 [Ex. 32, 7-β-[(Z)-2-(2-aminothiazol-4-yl)2-fluoromethoxyiminoacetamido]-3-(8-hydroxymethylpyrrolo[1,2-a]pyrazinium-2-yl)methyl-3-cephem-4-carboxylate] | ≤ 6 ng/mL | 25 µg/mL (≈ 44.5 µM) | 0.012 µg/mL (≈ 0.0214 µM) | 3.13 µg/mL (≈ 5.57 µM) | 0.05 µg/mL (≈ 0.089 µM) | ≤ 6 ng/mL | 0.2 µg/mL (≈ 0.356 µM) | 0.025 µg/mL (≈ 0.0445 µM) | 0.2 µg/mL (≈ 0.356 µM) | 0.012 µg/mL (≈ 0.0214 µM) | 0.025 µg/mL (≈ 0.0445 µM) | 1.56 µg/mL (≈ 2.78 µM) | ≤ 0.006 µg/mL | 0.78 µg/mL (≈ 1.39 µM) | 0.1 µg/mL (≈ 0.178 µM) | 0.78 µg/mL (≈ 1.39 µM) | 0.025 µg/mL (≈ 0.0445 µM) | 0.1 µg/mL (≈ 0.178 µM) | 3.13 µg/mL (≈ 5.57 µM) | 0.1 µg/mL (≈ 0.178 µM) |
| CCc1c[n+](CC2=C(C(=O)[O-])N3C(=O)[C@@H](NC(=O)/C(=N\OC)c4csc(N)n4)[C@H]3SC2)cc2cccn12 [Ex. 37, 7-β-[(Z)-2-(2-aminothiazol-4-yl)-2-methoxyiminoacetamido]-3-(4-ethylpyrrolo[1,2-a]pyrazinium-2-yl)methyl-3-cephem-4-carboxylate] | ≤ 6 ng/mL | 25 µg/mL (≈ 46.2 µM) | 0.012 µg/mL (≈ 0.0222 µM) | 1.56 µg/mL (≈ 2.88 µM) | 0.012 µg/mL (≈ 0.0222 µM) | ≤ 6 ng/mL | 0.1 µg/mL (≈ 0.185 µM) | 0.025 µg/mL (≈ 0.0462 µM) | 0.78 µg/mL (≈ 1.44 µM) | 0.012 µg/mL (≈ 0.0222 µM) | 0.012 µg/mL (≈ 0.0222 µM) | 0.78 µg/mL (≈ 1.44 µM) | 0.012 µg/mL (≈ 0.0222 µM) | 3.13 µg/mL (≈ 5.78 µM) | 0.2 µg/mL (≈ 0.369 µM) | 0.2 µg/mL (≈ 0.369 µM) | 0.012 µg/mL (≈ 0.0222 µM) | 0.2 µg/mL (≈ 0.369 µM) | 6.25 µg/mL (≈ 11.5 µM) | 0.2 µg/mL (≈ 0.369 µM) |
| CO/N=C(\C(=O)N[C@@H]1C(=O)N2C(C(=O)[O-])=C(C[n+]3ccn4c(CO)ccc4c3)CS[C@H]12)c1nsc(N)n1 [Ex. 50, 7-β-[(Z)-2-(5-amino-1,2,4-thiadiazol-3-yl)-2-methoxyiminoacetamido]-3-(6-hydroxymethylpyrrolo[1,2-a]-pyrazinium-2-yl)methyl-3-cephem-4-carboxylate] | ≤ 6 ng/mL | 12.5 µg/mL (≈ 23 µM) | ≤ 0.006 µg/mL | 1.56 µg/mL (≈ 2.86 µM) | 0.012 µg/mL (≈ 0.022 µM) | ≤ 6 ng/mL | 0.39 µg/mL (≈ 0.716 µM) | 0.012 µg/mL (≈ 0.022 µM) | 0.1 µg/mL (≈ 0.184 µM) | 0.012 µg/mL (≈ 0.022 µM) | 0.012 µg/mL (≈ 0.022 µM) | 0.78 µg/mL (≈ 1.43 µM) | ≤ 0.006 µg/mL | 0.78 µg/mL (≈ 1.43 µM) | 0.05 µg/mL (≈ 0.0918 µM) | 0.78 µg/mL (≈ 1.43 µM) | ≤ 0.006 µg/mL | 0.05 µg/mL (≈ 0.0918 µM) | 1.56 µg/mL (≈ 2.86 µM) | 0.1 µg/mL (≈ 0.184 µM) |
